Consider 37 molecules from US10654837B2, “Sulphamoylaryl derivatives and use thereof as medicaments for the treatment of liver fibrosis” (Janssen Pharmaceutica NV, priority 2017, dated 2020).

In the assay the target is T1, 5HTR2B (Homo sapiens, UniProt P41595).
T1 construct: host or cells: human Maverick/293 cells
T1 sequence (P41595 whole entry): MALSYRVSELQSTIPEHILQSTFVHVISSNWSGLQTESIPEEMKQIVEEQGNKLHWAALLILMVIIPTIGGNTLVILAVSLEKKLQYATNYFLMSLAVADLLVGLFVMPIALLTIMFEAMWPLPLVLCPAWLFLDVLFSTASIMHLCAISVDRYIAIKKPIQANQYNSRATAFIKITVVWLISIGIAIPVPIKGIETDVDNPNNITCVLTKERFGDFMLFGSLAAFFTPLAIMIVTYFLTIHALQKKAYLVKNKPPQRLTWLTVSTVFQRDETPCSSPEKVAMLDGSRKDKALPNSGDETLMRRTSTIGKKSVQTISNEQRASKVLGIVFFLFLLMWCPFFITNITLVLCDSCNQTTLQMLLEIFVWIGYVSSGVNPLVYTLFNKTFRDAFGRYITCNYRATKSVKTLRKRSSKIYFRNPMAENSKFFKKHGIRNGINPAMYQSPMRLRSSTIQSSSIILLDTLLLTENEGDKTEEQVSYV
The assay is described as follows: 5HTR2B antagonist activity, calcium mobilization assay in human Maverick/293 cells (serotonin as agonist). The class given is cell-based. As to conditions: intracellular calcium, emission 525 nm, read-out: Ca assay IC50. The essentials:
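Serum-starved (2 h) human Maverick/293 cells loaded with calcium dye for 50 min at 37 °C, then antagonist preincubated 15-30 min before serotonin challenge. Calcium fluorescence (ex 485/em 525 nm) recorded for 80 s; peak-based % inhibition fitted sigmoidally for IC50.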
(Calcium assays in cells follow changes in intracellular calcium, usually with a dye or a luminescent sensor.)
For `COc1ccc(S(=O)(=O)N[C@H]2CCC[C@H]2O)cc1C(=O)Nc1ccccc1Cl` [Compound 61a, N-(2-Chlorophenyl)-5-(N-((1s,2r)-2-hydroxycyclopentyl)sulfamoyl)-2-methoxy benzamide], the IC50 is 0.1 nM.
The result for `COc1ccc(S(=O)(=O)NC2CCC[C@@H]2O)cc1C(=O)Nc1ccccc1Cl` (stereo partly drawn) [Compound 61b, N-(2-Chlorophenyl)-5-(N-((trans)-2-hydroxycyclopentyl)sulfamoyl)-2-methoxy benzamide] reads 0.2 nM; that for `COc1ccc(S(=O)(=O)NC2CCC[C@H]2O)cc1C(=O)Nc1ccccc1Cl` (stereo partly drawn) [Compound 61c, N-(2-chlorophenyl)-5-(N-((trans)-2-hydroxycyclopentyl)sulfamoyl)-2-methoxy benzamide], 0.2 nM; that for `COc1ccc(S(=O)(=O)NC2COC2)cc1C(=O)Nc1ccccc1Cl` [Compound 62, N-(2-Chlorophenyl)-2-methoxy-5-(N-(oxetan-3-yl)sulfamoyl)benzamide], 0.1 nM.
The result for `COc1ccc(S(=O)(=O)NC2CCC2)cc1C(=O)Nc1ccc(F)c(C)c1` [Compound 63, 5-(N-Cyclobutylsulfamoyl)-N-(4-fluoro-3-methylphenyl)-2-methoxybenzamide] reads 1.3 nM; that for `COc1ccc(S(=O)(=O)N[C@H]2CCOC2)cc1C(=O)Nc1nccs1` [Compound 64, (S)-2-Methoxy-5-(N-(tetrahydrofuran-3-yl)sulfamoyl)-N-(thiazol-2-yl) benzamide], 65 nM.
Turning to `COc1ccc(S(=O)(=O)N[C@H]2CCOC2)cc1C(=O)Nc1ccc(F)cc1F` [Compound 65, (S)—N-(2,4-Difluorophenyl)-2-methoxy-5-(N-(tetrahydrofuran-3-yl)sulfamoyl) benzamide], the IC50 was 0.34 nM.
`COc1ccc(S(=O)(=O)N[C@H]2CCOC2)cc1C(=O)Nc1ccc(F)cc1Cl` [Compound 66, (S)—N-(2-Chloro-4-fluorophenyl)-2-methoxy-5-(N-(tetrahydrofuran-3-yl)sulfamoyl)benzamide]: the IC50 was 0.2 nM.
For `COc1ccc(S(=O)(=O)N[C@H]2CCOC2)cc1C(=O)Nc1cc(F)cc(F)c1` [Compound 67, (S)—N-(3,5-Difluorophenyl)-2-methoxy-5-(N-(tetrahydrofuran-3-yl)sulfamoyl)benzamide] the value was 8.8 nM.
For `COc1ccc(S(=O)(=O)N[C@H]2CCOC2)cc1C(=O)Nc1cc(F)cc(Cl)c1` [Compound 68, (S)—N-(3-Chloro-5-fluorophenyl)-2-methoxy-5-(N-(tetrahydrofuran-3-yl)sulfamoyl)benzamide] the value was 2.9 nM.
Take `COc1ccc(S(=O)(=O)N[C@H]2CCOC2)cc1C(=O)Nc1cc(F)ccc1F` [Compound 69, (S)—N-(2,5-Difluorophenyl)-2-methoxy-5-(N-(tetrahydrofuran-3-yl)sulfamoyl) benzamide]: the IC50 turned out to be 1.5 nM.
`COc1ccc(S(=O)(=O)N[C@H]2CCOC2)cc1C(=O)Nc1cc(F)ccc1Cl` [Compound 70, (S)—N-(2-Chloro-5-fluorophenyl)-2-methoxy-5-(N-(tetrahydrofuran-3-yl)sulfamoyl)benzamide]: the IC50 was determined as 0.3 nM.
For `COc1ccc(S(=O)(=O)N[C@H]2CCOC2)cc1C(=O)Nc1cc(Cl)ccc1Cl` [Compound 71, (S)—N-(2,5-Dichlorophenyl)-2-methoxy-5-(N-(tetrahydrofuran-3-yl)sulfamoyl)benzamide], the IC50 was 1.6 nM.
For the molecule `COc1ccc(S(=O)(=O)N[C@H]2CCOC2)cc1C(=O)Nc1ccc(Cl)c(Cl)c1` [Compound 72, (S)—N-(3,4-Dichlorophenyl)-2-methoxy-5-(N-(tetrahydrofuran-3-yl)sulfamoyl) benzamide], the IC50 came to 5.1 nM.
For `COc1ccc(S(=O)(=O)N[C@H]2CCOC2)cc1C(=O)Nc1ccc(C#N)cc1F` [Compound 73, (S)—N-(4-Cyano-2-fluorophenyl)-2-methoxy-5-(N-(tetrahydrofuran-3-yl)sulfamoyl)benzamide] the value was 5.5 nM; for `COc1ccc(S(=O)(=O)N[C@H]2CCOC2)cc1C(=O)Nc1cc(F)c(F)cc1F` [Compound 74, (S)-2-Methoxy-5-(N-(tetrahydrofuran-3-yl)sulfamoyl)-N-(2,4,5-trifluorophenyl) benzamide], 0.8 nM.
For `COc1ccc(S(=O)(=O)N[C@H]2CCOC2)cc1C(=O)Nc1cc(Cl)c(F)cc1F` [Compound 75, (S)—N-(5-Chloro-2,4-difluorophenyl)-2-methoxy-5-(N-(tetrahydrofuran-3-yl)sulfamoyl)benzamide] the value was 9.1 nM; for `COc1ccc(S(=O)(=O)N[C@H]2CCOC2)cc1C(=O)Nc1c(F)cc(F)cc1F` [Compound 76, (S)-2-Methoxy-5-(N-(tetrahydrofuran-3-yl)sulfamoyl)-N-(2,4,6-trifluorophenyl) benzamide], 3.1 nM; for `COc1ccc(S(=O)(=O)N[C@H]2CCOC2)cc1C(=O)Nc1ccc(F)c(Cl)c1F` [Compound 77, (S)—N-(3-Chloro-2,4-difluorophenyl)-2-methoxy-5-(N-(tetrahydrofuran-3-yl)sulfamoyl)benzamide], 5.3 nM.
In the case of `COc1ccc(S(=O)(=O)N[C@H]2CCOC2)cc1C(=O)Nc1c(F)cc(F)cc1Cl` [Compound 78, (S)—N-(2-Chloro-4,6-difluorophenyl)-2-methoxy-5-(N-(tetrahydrofuran-3-yl)sulfamoyl)benzamide], the IC50 is 2.4 nM.
The result for `COc1ccc(S(=O)(=O)N[C@H]2CCOC2)cc1C(=O)Nc1ccn(C)n1` [Compound 79, (S)-2-Methoxy-N-(1-methyl-1H-pyrazol-3-yl)-5-(N-(tetrahydrofuran-3-yl)sulfamoyl)benzamide] reads 98 nM.
For `COc1ccc(S(=O)(=O)N[C@H]2CCOC2)cc1C(=O)Nc1c(F)cc(C#N)cc1F` [Compound 80, (S)—N-(4-cyano-2,6-difluorophenyl)-2-methoxy-5-(N-(tetrahydrofuran-3-yl)sulfamoyl)benzamide] the value was 574 nM; for `COc1ccc(S(=O)(=O)N[C@H]2CCOC2)cc1C(=O)Nc1c(Cl)cccc1Cl` [Compound 81, (S)—N-(2,6-Dichlorophenyl)-2-methoxy-5-(N-(tetrahydrofuran-3-yl)sulfamoyl) benzamide], 32 nM; for `COc1ccc(S(=O)(=O)N[C@H]2CCOC2)cc1C(=O)Nc1nc(C)cs1` [Compound 82, (S)-2-methoxy-N-(4-methylthiazol-2-yl)-5-(N-(tetrahydrofuran-3-yl)sulfamoyl) benzamide], 1.1 nM.
For `COc1ccc(S(=O)(=O)N[C@H]2CCOC2)cc1C(=O)Nc1nc(C)c(C)s1` [Compound 83, (S)—N-(4,5-dimethylthiazol-2-yl)-2-methoxy-5-(N-(tetrahydrofuran-3-yl)sulfamoyl)benzamide] the value was 126 nM.
With `COc1ccc(S(=O)(=O)N[C@H]2CCOC2)cc1C(=O)Nc1ncc(C)s1` [Compound 84, (S)-2-methoxy-N-(5-methylthiazol-2-yl)-5-(N-(tetrahydrofuran-3-yl)sulfamoyl) benzamide], the IC50 was determined as 716 nM.
For `COc1ccc(S(=O)(=O)N[C@H]2CCOC2)cc1C(=O)Nc1ccc(Cl)cc1Cl` [Compound 85, (S)—N-(2,4-Dichlorophenyl)-2-methoxy-5-(N-(tetrahydrofuran-3-yl)sulfamoyl) benzamide] the value was 1.5 nM; for `COc1ccc(S(=O)(=O)N[C@H]2CCOC2)cc1C(=O)Nc1cc(Cl)cc(Cl)c1` [Compound 86, (S)—N-(3,5-Dichlorophenyl)-2-methoxy-5-(N-(tetrahydrofuran-3-yl)sulfamoyl) benzamide], 1.8 nM.
For `COc1ccc(S(=O)(=O)N[C@H]2CCOC2)cc1C(=O)Nc1cc(F)cc(C#N)c1` [Compound 87, (S)—N-(3-Cyano-5-fluorophenyl)-2-methoxy-5-(N-(tetrahydrofuran-3-yl)sulfamoyl)benzamide] the value was 29 nM; for `COc1ccc(S(=O)(=O)N[C@H]2CCOC2)cc1C(=O)Nc1ccc(F)c(F)c1F` [Compound 88, (S)-2-Methoxy-5-(N-(tetrahydrofuran-3-yl)sulfamoyl)-N-(2,3,4-trifluorophenyl) benzamide], 28 nM; for `COc1ccc(S(=O)(=O)N[C@H]2CCOC2)cc1C(=O)Nc1ccc(C#N)c(Cl)c1` [Compound 89, (S)—N-(3-Chloro-4-cyanophenyl)-2-methoxy-5-(N-(tetrahydrofuran-3-yl)sulfamoyl)benzamide], 1950 nM.
For `COc1ccc(S(=O)(=O)N[C@H]2CCOC2)cc1C(=O)Nc1ccc(C#N)c(F)c1` [Compound 90] the value was 1360 nM; for `COc1ccc(S(=O)(=O)N[C@H]2CCOC2)cc1C(=O)Nc1c(F)cc(Cl)cc1F` [Compound 91, (S)—N-(4-Chloro-2,6-difluorophenyl)-2-methoxy-5-(N-(tetrahydrofuran-3-yl)sulfamoyl)benzamide], 92 nM; for `COc1ccc(S(=O)(=O)N[C@H]2CCOC2)cc1C(=O)Nc1cccc(C#N)c1F` [Compound 92, (S)—N-(3-Cyano-2-fluorophenyl)-2-methoxy-5-(N-(tetrahydrofuran-3-yl)sulfamoyl)benzamide], 136 nM.
With `COc1ccc(S(=O)(=O)N[C@H]2CCOC2)cc1C(=O)Nc1c(F)ccc(Cl)c1F` [Compound 93, (S)—N-(3-Chloro-2,6-difluorophenyl)-2-methoxy-5-(N-(tetrahydrofuran-3-yl)sulfamoyl)benzamide], the IC50 was found to be 1060 nM.
The result for `COc1ccc(S(=O)(=O)N[C@H]2CCOC2)cc1C(=O)Nc1cc(Cl)cc(C#N)c1` [Compound 94, (S)—N-(3-Chloro-5-cyanophenyl)-2-methoxy-5-(N-(tetrahydrofuran-3-yl)sulfamoyl)benzamide] reads 12 nM; that for `COc1ccc(S(=O)(=O)N[C@H]2CCOC2)cc1C(=O)Nc1ccc(F)c(C#N)c1` [Compound 95, (S)—N-(3-Cyano-4-fluorophenyl)-2-methoxy-5-(N-(tetrahydrofuran-3-yl)sulfamoyl)benzamide], 648 nM.

What is called IC50 is the concentration that gives 50% inhibition.
